The target in the assay is T1, human NEP (Homo sapiens, UniProt P08473).
T1 construct: purchased R&D Systems, Minneapolis, Minn; 1182-ZN
Put plainly: In vitro enzyme inhibition assay at human NEP (Assay 1). The assay is classed as biochemical. The note with it: recombinant enzyme, fluorogenic peptide substrate, 37° C. The protocol:
In Vitro Assays for the Quantitation of Inhibitor Potencies (IC50) at Human and Rat NEP, and Human ACE
The inhibitory activities of compounds at human and rat neprilysin (EC 3.4.24.11; NEP) and human angiotensin converting enzyme (ACE) were determined using in vitro assays as described below.
Recombinant human NEP and recombinant human ACE were obtained commercially (R&D Systems, Minneapolis, Minn., catalog numbers 1182-ZN and 929-ZN, respectively). The fluorogenic peptide substrate Mca-D-Arg-Arg-Leu-Dap-(Dnp)-OH (Medeiros et al. (1997) Braz. J. Med. Biol. Res. 30:1157-62; Anaspec, San Jose, Calif.) and Abz-Phe-Arg-Lys(Dnp)-Pro-OH (Araujo et al. (2000) Biochemistry 39:8519-8525; Bachem, Torrance, Calif.) were used in the NEP and ACE assays respectively.
The assays were performed in 384-well white opaque plates at 37° C. using the fluorogenic peptide substrates at a concentration of 10 μM in Assay Buffer (NEP: 50 mM HEPES, pH 7.5, 100 mM NaCl, 0.01% polyethylene glycol sorbitan monolaurate (Tween-20), 10 μM ZnSO4; ACE: 50 mM HEPES, pH 7.5, 100 mM NaCl, 0.01% Tween-20, 1 μM ZnSO4).
Test compounds were assayed over the range of concentrations from […] to 20 μM. Test compounds were added to the enzymes and incubated for 30 minute at 37° C. prior to initiating the reaction by the addition of substrate. Reactions were terminated after 20 minutes of incubation at 37° C. by the addition of glacial acetic acid to a final concentration of 3.6% (v/v).
Plates were read on a fluorometer with excitation and emission wavelengths set to 320 nm and 405 nm, respectively. Inhibition constants were obtained by nonlinear regression of the data using the equation (GraphPad Software, Inc., San Diego, Calif.): v=v0/[1+(I/K′)] where v is the reaction rate, v0 is the uninhibited reaction rate, I is the inhibitor concentration and K′ is the apparent inhibition constant.
Compounds of the invention were tested in this assay and found to have pKi values at human NEP as follows.

T1 sequence (P08473 whole entry): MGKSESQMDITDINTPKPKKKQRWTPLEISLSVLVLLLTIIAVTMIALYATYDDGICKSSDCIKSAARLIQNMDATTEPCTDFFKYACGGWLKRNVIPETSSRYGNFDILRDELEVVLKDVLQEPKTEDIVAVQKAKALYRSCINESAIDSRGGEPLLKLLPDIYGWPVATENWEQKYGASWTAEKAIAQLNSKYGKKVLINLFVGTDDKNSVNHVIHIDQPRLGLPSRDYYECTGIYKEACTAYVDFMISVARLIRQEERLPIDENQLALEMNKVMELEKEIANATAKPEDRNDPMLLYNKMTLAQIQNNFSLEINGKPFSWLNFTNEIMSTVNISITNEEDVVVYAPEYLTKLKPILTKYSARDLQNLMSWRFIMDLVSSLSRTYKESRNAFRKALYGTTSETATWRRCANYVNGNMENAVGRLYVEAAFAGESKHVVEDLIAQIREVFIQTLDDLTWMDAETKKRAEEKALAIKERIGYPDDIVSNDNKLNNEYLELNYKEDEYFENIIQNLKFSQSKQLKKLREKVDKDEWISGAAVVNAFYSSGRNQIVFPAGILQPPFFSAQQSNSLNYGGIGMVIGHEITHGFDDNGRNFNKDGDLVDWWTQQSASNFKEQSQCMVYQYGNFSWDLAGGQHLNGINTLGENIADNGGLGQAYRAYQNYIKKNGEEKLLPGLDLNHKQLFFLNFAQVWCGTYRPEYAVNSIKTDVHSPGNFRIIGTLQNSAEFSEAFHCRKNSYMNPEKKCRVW

Usually Ki stands for the dissociation constant of the complex between target and ligand, obtained from inhibition or displacement. Consider `O=C(O)c1cc(C(=O)NN(Cc2ccc(-c3ccccc3)cc2)C[C@@H](O)C(=O)O)[nH]n1` [Example 1, 5-[N′-Biphenyl-4-ylmethyl-N′-((R)-2-carboxy-2-hydroxyethyl)hydrazinocarbonl]-1H-pyrazole-3-carboxylic Acid], for which the inhibition constant (Ki) is no more than 1 nM.

In the case of `O=C(O)c1cc(C(=O)NN(Cc2ccc(-c3ccccc3)cc2)C[C@H](O)C(=O)O)[nH]n1` [Example 2-1, 5-[N′-Biphenyl-4-ylmethyl-N′-((S)-2-carboxy-2-hydroxyethyl)-hydrazinocarbonyl]-1H-pyrazole-3-carboxylic acid], the Ki is 1.26 to 10 nM.

For `O=C(NCCO)c1cc(C(=O)NN(Cc2ccc(-c3ccccc3)cc2)C[C@@H](O)C(=O)O)[nH]n1` [Example 2-2, (R)-3-{N-Biphenyl-4-ylmethyl-N′-[5-(2-hydroxyethylcarbamoyl)-2H-pyrazole-3-carbonyl]hydrazino}-2-hydroxypropionic acid], the inhibitory constant (Ki) is 1.26 to 10 nM.

For the compound `NS(=O)(=O)CCNC(=O)c1cc(C(=O)NN(Cc2ccc(-c3ccccc3)cc2)C[C@@H](O)C(=O)O)[nH]n1` [Example 2-3, (R)-3-{N-Biphenyl-4-ylmethyl-N′-[5-(2-sulfamoylethylcarbamoyl)-2H-pyrazole-3-carbonyl]hydrazino}-2-hydroxypropionic acid], the inhibitory constant (Ki) is 1.26 to 10 nM.

As to `O=C(NC1CC1)c1cc(C(=O)NN(Cc2ccc(-c3ccccc3)cc2)C[C@@H](O)C(=O)O)[nH]n1` [Example 2-4, (R)-3-[N-Biphenyl-4-ylmethyl-N′-(5-cyclopropylcarbamoyl-2H-pyrazole-3-carbonyl)-hydrazino]-2-hydroxypropionic acid], the Ki is 12.6 to 100 nM.

Take `COCCN(C)C(=O)c1cc(C(=O)NN(Cc2ccc(-c3ccccc3)cc2)C[C@@H](O)C(=O)O)[nH]n1` [Example 2-5, (R)-3-(N-Biphenyl-4-ylmethyl-N′-{5-[(2-methoxyethyl)methylcarbamoyl]-2H-pyrazole-3-carbonyl}hydrazino)-2-hydroxypropionic acid]: the Ki is 12.6 to 100 nM.

In the case of `CN(C)C(=O)c1cc(C(=O)NN(Cc2ccc(-c3ccccc3)cc2)C[C@@H](O)C(=O)O)[nH]n1` [Example 2-6, (R)-3-[N-Biphenyl-4-ylmethyl-N′-(5-dimethylcarbamoyl-2H-pyrazole-3-carbonyl)-hydrazino]-2-hydroxypropionic acid], the inhibition constant Ki was 1.26 to 10 nM.

Take `CC(C)CN(C)C(=O)c1cc(C(=O)NN(Cc2ccc(-c3ccccc3)cc2)C[C@@H](O)C(=O)O)[nH]n1` [Example 2-7, (R)-3-{N-Biphenyl-4-ylmethyl-N′-[5-(isobutylmethylcarbamoyl)-2H-pyrazole-3-carbonyl]hydrazino}-2-hydroxypropionic acid]: the Ki was 12.6 to 100 nM.

For the compound `O=C(NN(Cc1ccc(-c2ccccc2)cc1)C[C@@H](O)C(=O)O)c1cc(C(=O)N2CCC2)n[nH]1` [Example 2-8, (R)-3-{N′-[5-(Azetidine-1-carbonyl)-2H-pyrazole-3-carbonyl]-N-biphenyl-4-ylmethylhydrazino}-2-hydroxypropionic acid], the inhibitory constant (Ki) was 1.26 to 10 nM.

As to `O=C(NN(Cc1ccc(-c2ccccc2)cc1)C[C@@H](O)C(=O)O)c1cc(C(=O)N2CCCC2)n[nH]1` [Example 2-9, (R)-3-{N-Biphenyl-4-ylmethyl-N′-[5-(pyrrolidine-1-carbonyl)-2H-pyrazole-3-carbonyl]hydrazino}-2-hydroxypropionic acid], the inhibition constant (Ki) was 1.26 to 10 nM.

In the case of `O=C(NN(Cc1ccc(-c2ccccc2)cc1)C[C@@H](O)C(=O)O)c1cc(C(=O)N2CCC(O)C2)n[nH]1` (stereo partly drawn) [Example 2-10, (R)-3-{N-Biphenyl-4-ylmethyl-N′-[5-(3-hydroxy-pyrrolidine-1-carbonyl)-2H-pyrazole-3-carbonyl]hydrazino}-2-hydroxypropionic acid], the inhibition constant (Ki) is 1.26 to 10 nM.

With `O=C(NN(Cc1ccc(-c2ccccc2)cc1)C[C@@H](O)C(=O)O)c1cc(C(=O)N2CC[C@@H](O)C2)n[nH]1` [Example 2-11, (R)-3-{N-Biphenyl-4-ylmethyl-N′-[5-((R)-3-hydroxy-pyrrolidine-1-carbonyl)-2H-pyrazole-3-carbonyl]hydrazino}-2-hydroxypropionic acid], the inhibitory constant (Ki) is 1.26 to 10 nM.

Turning to `O=C(NN(Cc1ccc(-c2ccccc2)cc1)C[C@@H](O)C(=O)O)c1cc(C(=O)N2CC[C@H](O)C2)n[nH]1` [Example 2-12, (R)-3-{N-Biphenyl-4-ylmethyl-N′-[5-((S)-3-hydroxy-pyrrolidine-1-carbonyl)-2H-pyrazole-3-carbonyl]hydrazino}-2-hydroxypropionic acid], the Ki is 1.26 to 10 nM.

As to `O=C(NN(Cc1ccc(-c2ccccc2)cc1)C[C@@H](O)C(=O)O)c1cc(C(=O)N2CC=CC2)n[nH]1` [Example 2-13, (R)-3-{N-Biphenyl-4-ylmethyl-N′-[5-(2,5-dihydro-pyrrole-1-carbonyl)-2H-pyrazole-3-carbonyl]hydrazino}-2-hydroxypropionic acid], the inhibition constant (Ki) is 1.26 to 10 nM.

For `O=C(NN(Cc1ccc(-c2ccccc2)cc1)C[C@@H](O)C(=O)O)c1cc(C(=O)N2CCCCC2)n[nH]1` [Example 2-14, (R)-3-{N-Biphenyl-4-ylmethyl-N′-[5-(piperidine-1-carbonyl)-2H-pyrazole-3-carbonyl]hydrazino}-2-hydroxypropionic acid], the Ki is 12.6 to 100 nM.

As to `O=C(NN(Cc1ccc(-c2ccccc2)cc1)C[C@@H](O)C(=O)O)c1cc(C(=O)N2CCOCC2)n[nH]1` [Example 2-15, (R)-3-{N-Biphenyl-4-ylmethyl-N′-[5-(morpholine-4-carbonyl)-2H-pyrazole-3-carbonyl]hydrazino}-2-hydroxypropionic acid], the inhibition constant (Ki) was 1.26 to 10 nM.

Regarding `O=C(NN(Cc1ccc(-c2ccccc2)cc1)C[C@@H](O)C(=O)O)c1cc(-c2ccccc2)n[nH]1` [Example 2-16, (R)-3-[N-Biphenyl-4-ylmethyl-N′-(5-phenyl-2H-pyrazole-3-carbonyl)-hydrazino]-2-hydroxypropionic acid], the Ki was 12.6 to 100 nM.

In the case of `O=C(NN(Cc1ccc(-c2ccccc2)cc1)C[C@@H](O)C(=O)O)c1cc(C(=O)O)n(Cc2c(F)cc(Cl)cc2F)n1` [Example 2-17, 5-[N′-Biphenyl-4-ylmethyl-N′-((R)-2-carboxy-2-hydroxyethyl)-hydrazinocarbonyl]-2-(4-chloro-2,6-difluorobenzyl)-2H-pyrazole-3-carboxylic acid], the inhibition constant Ki was 12.6 to 100 nM.

Consider `COc1c(F)c(F)c(Cn2nc(C(=O)NN(Cc3ccc(-c4ccccc4)cc3)C[C@@H](O)C(=O)O)cc2C(=O)O)c(F)c1F` [Example 2-18, 5-[N′-Biphenyl-4-ylmethyl-N′-((R)-2-carboxy-2-hydroxyethyl)-hydrazinocarbonyl]-2-(2,3,5,6-tetrafluoro-4-methoxybenzyl)-2H-pyrazole-3-carboxylic acid], for which the Ki was 1.26 to 10 nM.

Take `O=C(NN(Cc1ccc(-c2ccccc2)cc1)C[C@@H](O)C(=O)O)c1cc(O)no1` [Example 2-19, (R)-3-[N-Biphenyl-4-ylmethyl-N′-(3-hydroxyisoxazole-5-carbonyl)-hydrazino]-2-hydroxypropionic acid]: the Ki is 1.26 to 10 nM.

For the compound `O=C(NN(Cc1ccc(-c2ccccc2)cc1)C[C@H](O)C(=O)O)c1nnc[nH]1` [Example 2-20, (S)-3-[N-Biphenyl-4-ylmethyl-N′-(4H-[1,2,4]triazole-3-carbonyl)hydrazino]-2-hydroxypropionic acid], the inhibition constant (Ki) was 126 to 1000 nM.
